EC50, Emax and Efficiency data for 22 molecules are collected here from patent US20190367516A1 (Bayer Pharma Aktiengesellschaft, priority 2015, published 2019).

Molecules are shown by their SMILES. Read-outs that look alike come from different tables or passages of the source.

The term EC50 denotes the concentration needed to bring the measured effect to its halfway point. Low values mean greater potency, high ones weaker potency.

The test has as its target T1, human M2 receptor (Homo sapiens, UniProt P08172).
T1 sequence (P08172 1-466): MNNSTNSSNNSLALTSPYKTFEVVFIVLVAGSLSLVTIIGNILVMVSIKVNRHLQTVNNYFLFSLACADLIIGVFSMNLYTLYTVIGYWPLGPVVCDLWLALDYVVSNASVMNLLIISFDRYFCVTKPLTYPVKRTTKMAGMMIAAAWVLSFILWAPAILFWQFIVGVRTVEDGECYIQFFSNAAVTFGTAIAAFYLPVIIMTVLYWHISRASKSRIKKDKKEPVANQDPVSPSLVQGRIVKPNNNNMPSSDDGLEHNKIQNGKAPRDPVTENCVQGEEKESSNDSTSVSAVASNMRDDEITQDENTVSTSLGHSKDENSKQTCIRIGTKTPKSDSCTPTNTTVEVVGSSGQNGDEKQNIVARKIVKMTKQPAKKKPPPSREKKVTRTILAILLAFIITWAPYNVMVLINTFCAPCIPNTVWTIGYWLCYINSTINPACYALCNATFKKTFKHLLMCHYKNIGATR
The note with it: for Emax: read-out: Efficiency, boosting of the acetylcholine effect at EC20 acetylcholine concentration.

[1] abbreviates: Receptor activity EC50, M2-GIRK1/4 activation test, acetylcholine at EC20, allosteric potency, in some cases mean values from two or more determinations.
Where [2] appears, read: Receptor activity EC50, allosteric potency at EC20 acetylcholine, M2-GIRK1/4 reporter cells, in some cases mean of two or more determinations.

Text: Functional M2-GIRK1/4 Activation Test
The binding of orthosteric agonists (endogenous ligand: acetylcholine) to the M2 receptor leads to receptor activation or a change in conformation of the receptor in the manner of a shift in equilibrium in favour of the active receptor conformation.
The agonist-induced change in conformation of the M2 receptor results in a Gαi protein activation. […] Under physiological conditions, the result is then a selective efflux of potassium from the cell along the electrochemical gradient. […] The extent of hyperpolarization can therefore be regarded as a measure of the activation of the M2 receptor.
The test cell used is a recombinant CHO-DUKX cell line which has been stably transfected with cDNA coding for the human M2 receptor and with cDNA coding for both GIRK1/4 subunits (CHO-DUKX-M2-GIRK). The transmembrane potential, or the relative changes in the transmembrane potential as a function of substance addition or M2 activation, is determined by means of a voltage-sensitive dye (FLIPR Membrane Potential Assay Kit Blue, Molecular Devices # R8034) and the measurement of cell fluorescence using a proprietary fluorescence imaging instrument.
Determination of the Allosteric Potency of the Test Substances (EC50 Value)
The sowing medium consisted of MEM alpha medium (supplemented with 5% FCS, 2% Glutamax, no genticin).
For the particular measurement, the medium was removed and the cells were laden with the voltage-sensitive dye for at least 6 min at room temperature (30 μl of loading buffer per 384-well). This was followed, in a first measurement, by the determination of the fluorescence for the resting transmembrane potential for a period of 5 sec. Thereafter, 10 μl in each case of the test substances diluted in loading buffer were added, followed by a second measurement to determine the transmembrane potential for a period of 50 sec. Finally, the cells were admixed with 10 μl of agonist solution (acetylcholine dissolved in loading buffer). Acetylcholine was used at the concentration corresponding to the EC20, which had been determined in a preliminary test. The M2-mediated GIRK1/4 activation or hyperpolarization was then monitored in a third measurement over a period of 60 sec. The EC50 value (degree of allosteric potency of test compound) and the efficiency (measure of the boosting of the acetylcholine effect at an EC20 acetylcholine concentration) were determined with the aid of a 4-parameter logistic function (Hill function).

In turn, `O=C(NC(c1ccccc1Cl)C(F)(F)F)c1cn(-c2ccc(F)cc2F)c2nc(N3CC[C@@H](O)C3=O)ccc2c1=O` (stereo partly drawn) [Example 299, N-[1-(2-Chlorophenyl)-2,2,2-trifluoroethyl]-1-(2,4-difluorophenyl)-7-[(3R)-3-hydroxy-2-oxopyrrolidin-1-yl]-4-oxo-1,4-dihydro-1,8-naphthyridine-3-carboxamide] yielded a 50% effective concentration (EC50) under setting [1] of 56 nM. That is a double-digit nanomolar value.

For `CC[C@H](NC(=O)c1cn(-c2c(F)cc(F)cc2Cl)c2nc(N3CC4CC4(O)C3)ccc2c1=O)C(F)(F)F` (mixture of isomers) [Example 413, 1-(2-Chloro-4,6-difluorophenyl)-7-[1-hydroxy-3-azabicyclo[3.1.0]hex-3-yl]-4-oxo-N-[(2S)-1,1,1-trifluorobutan-2-yl]-1,4-dihydro-1,8-naphthyridine-3-carboxamide], the EC50 under setting [2] was determined as 10 nM. Further, the Emax (M2-GIRK1/4 reporter cells) came out at 100%.

The molecule `CC(C)(CC(F)(F)F)NC(=O)c1cn(-c2c(F)cc(F)cc2F)c2nc(N3CC(O)C4(CC4)C3)ccc2c1=O` (single isomer, unassigned) [Example 570, 7-[7-Hydroxy-5-azaspiro[2.4]hept-5-yl]-4-oxo-N-(4,4,4-trifluoro-2-methylbutan-2-yl)-1-(2,4,6-trifluorophenyl)-1,4-dihydro-1,8-naphthyridine-3-carboxamide] came in with an EC50 under setting [2] of 56 nM. For the same molecule, the Emax (M2-GIRK1/4 reporter cells) came to 100%.

`O=C(N[C@H](C1CC1)C(F)(F)F)c1cn(-c2c(Cl)cc(F)cc2Cl)c2nc(N3C[C@@H](O)CC3=O)ccc2c1=O` [Example 387, N-[(1R)-1-Cyclopropyl-2,2,2-trifluoroethyl]-1-(2,6-dichloro-4-fluorophenyl)-7-[(4S)-4-hydroxy-2-oxopyrrolidin-1-yl]-4-oxo-1,4-dihydro-1,8-naphthyridine-3-carboxamide] displayed an EC50 under setting [1] of 42 nM.

With `O=C(NC(c1ccccc1Cl)C(F)(F)F)c1cn(-c2c(F)cc(F)cc2F)c2nc(N3C[C@@H](O)CC3=O)ccc2c1=O` (single isomer, unassigned) [Example 533], the EC50 under setting [2] was 24 nM. In addition, the Emax (M2-GIRK1/4 reporter cells) amounted to 100%.

`CC(NC(=O)c1cn(-c2c(F)cc(F)cc2F)c2nc(N3C[C@@H](O)CC3=O)ccc2c1=O)(C1CC1)C(F)(F)F` (mixture of isomers) [Example 508, N-[2-Cyclopropyl-1,1,1-trifluoropropan-2-yl]-7-[(4S)-4-hydroxy-2-oxopyrrolidin-1-yl]-4-oxo-1-(2,4,6-trifluorophenyl)-1,4-dihydro-1,8-naphthyridine-3-carboxamide] registered a 50% effective concentration (EC50) under setting [2] of 7 nM. The Emax (M2-GIRK1/4 reporter cells) is 93.5%.

Consider `CC1(NC(=O)c2cn(-c3c(F)cc(F)cc3F)c3nc(N4CCNC4=O)ccc3c2=O)CC(F)(F)C1` [Example 656, N-(3,3-Difluoro-1-methylcyclobutyl)-4-oxo-7-(2-oxoimidazolidin-1-yl)-1-(2,4,6-trifluorophenyl)-1,4-dihydro-1,8-naphthyridine-3-carboxamide], for which a half-maximal response under setting [2] (EC50) required 100 nM. For the setting “M2-GIRK1/4 reporter cells”, the Emax was determined as 91.5%.

Under setting [2], `O=C(N[C@@H](C1CC1)C(F)(F)F)c1cn(-c2c(F)cc(F)cc2F)c2nc(N(CCO)CCO)ccc2c1=O` [Example 664, 7-[Bis(2-hydroxyethyl)amino]-N-[(1S)-1-cyclopropyl-2,2,2-trifluoroethyl]-4-oxo-1-(2,4,6-trifluorophenyl)-1,4-dihydro-1,8-naphthyridine-3-carboxamide] registered an EC50 of 100 nM. For the same molecule, where the note is “M2-GIRK1/4 reporter cells”, the Emax stood at 98%.

Under setting [2], `C[C@H](NC(=O)c1cn(-c2c(F)cc(F)cc2F)c2nc(N3C[C@@H](O)[C@H](O)C3)ccc2c1=O)C1CC1` [Example 477, N-[(1 S)-1-Cyclopropylethyl]-7-[(3R,4R)-3,4-dihydroxypyrrolidin-1-yl]-4-oxo-1-(2,4,6-trifluorophenyl)-1,4-dihydro-1,8-naphthyridine-3-carboxamide] came in with an EC50 of 73 nM. In addition, the Emax (M2-GIRK1/4 reporter cells) came out at 89%.

With `CN(C)c1ccc2c(=O)c(C(=O)NC3(C(F)(F)F)CCCC3)cn(-c3ccc(F)cc3F)c2n1` [Example 151, 1-(2,4-Difluorophenyl)-7-(dimethylamino)-4-oxo-N-[1-(trifluoromethyl)cyclopentyl]-1,4-dihydro-1,8-naphthyridine-3-carboxamide], under setting [1], the midpoint of the response, the EC50, lay at 23 nM. This counts as double-digit nanomolar.

In the case of `CC[C@@H](NC(=O)c1cn(-c2c(F)cc(F)cc2Cl)c2nc(N3CC4CC4(O)C3)ccc2c1=O)C(F)(F)F` (stereo partly drawn) [Example 406, 1-(2-Chloro-4,6-difluorophenyl)-7-[1-hydroxy-3-azabicyclo[3.1.0]hex-3-yl]-4-oxo-N-[(2R)-1,1,1-trifluorobutan-2-yl]-1,4-dihydro-1,8-naphthyridine-3-carboxamide], under setting [2], the EC50 is 9 nM. The Emax (M2-GIRK1/4 reporter cells) amounted to 88%.

Under setting [1], `O=C(N[C@@H](C1CC1)C(F)(F)F)c1cn(-c2c(F)cc(F)cc2F)c2nc(N3CCNS3(=O)=O)ccc2c1=O` [Example 373, N-[(1 S)-1-Cyclopropyl-2,2,2-trifluoroethyl]-7-(d1,1-dioxido-1,2,5-thiadiazolidin-2-yl)-4-oxo-1-(2,4,6-trifluorophenyl)-1,4-dihydro-1,8-naphthyridine-3-carboxamide] yielded an EC50 of 89 nM.

`O=C(NC12CC3CC(CC(C3)C1)C2)c1cn(-c2ccc(F)cc2F)c2nc(N3CCSC3)ccc2c1=O` [Example 129, 1-(2,4-Difluorophenyl)-4-oxo-7-(1,3-thiazolidin-3-yl)-N-(tricyclo[3.3.1.1^3,7]dec-1-yl)-1,4-dihydro-1,8-naphthyridine-3-carboxamide] displayed an EC50 under setting [1] of 45 nM.

For `CC[C@@H](NC(=O)c1cn(-c2ccc(F)cc2F)c2nc(N3CCC(C)C3=O)ccc2c1=O)C(F)(F)F` (stereo partly drawn) [Example 431, 1-(2,4-Difluorophenyl)-7-[3-methyl-2-oxopyrrolidin-1-yl]-4-oxo-N-[(2R)-1,1,1-trifluorobutan-2-yl]-1,4-dihydro-1,8-naphthyridine-3-carboxamide], the EC50 under setting [2] was determined as 92 nM. In addition, for the setting “M2-GIRK1/4 reporter cells”, the Emax turned out to be 98%.

The molecule `CC(C)[C@@H](C)NC(=O)c1cn(-c2c(F)cc(F)cc2F)c2nc(N3C[C@@H](O)CC3=O)ccc2c1=O` [Example 473, 7-[(4S)-4-Hydroxy-2-oxopyrrolidin-1-yl]-N-[(2R)-3-methylbutan-2-yl]-4-oxo-1-(2,4,6-trifluorophenyl)-1,4-dihydro-1,8-naphthyridine-3-carboxamide] gave an EC50 under setting [2] of 31 nM. Further, where the note is “M2-GIRK1/4 reporter cells”, the Emax amounted to 100%.

As for `O=C(NC12CC(F)(C1)C2)c1cn(-c2c(F)cc(F)cc2F)c2nc(N3C[C@@H](O)[C@H](O)C3)ccc2c1=O` [Example 368, 7-[(3R,4R)-3,4-Dihydroxypyrrolidin-1-yl]-N-(3-fluorobicyclo[1.1.1]pent-1-yl)-4-oxo-1-(2,4,6-trifluorophenyl)-1,4-dihydro-1,8-naphthyridine-3-carboxamide], a half-maximal response under setting [1] (EC50) required 91 nM.

`CCC1CCN(c2ccc3c(=O)c(C(=O)N[C@@H](C4CC4)C(F)(F)F)cn(-c4c(F)cc(F)cc4F)c3n2)C(=O)N1` (single isomer, unassigned) [Example 447, N-[(1 S)-1-Cyclopropyl-2,2,2-trifluoroethyl]-7-[4-ethyl-2-oxotetrahydropyrimidin-1(2H)-yl]-4-oxo-1-(2,4,6-trifluorophenyl)-1,4-dihydro-1,8-naphthyridine-3-carboxamide] yielded an EC50 under setting [2] of 24 nM. Moreover, where the note is “M2-GIRK1/4 reporter cells”, the Emax was 93%.

`CN(C)c1ccc2c(=O)c(C(=O)NCc3ccc(F)cc3F)cn(-c3ccc(F)cc3F)c2n1` [Example 50, N-(2,4-Dmuorobenzyl)-1-(2,4-difluorophenyl)-7-(dimethylamino)-4-oxo-1,4-dihydro-1,8-naphthyridine-3-carboxamide]: the EC50 under setting [1] is 158 nM. In other words, the sub-micromolar range.

With `CCC(COC(F)(F)F)NC(=O)c1cn(-c2c(F)cc(F)cc2F)c2nc(N3CCNC3=O)ccc2c1=O` (racemic) [Example 610, 4-Oxo-7-(2-oxoimidazolidin-1-yl)-N-[1-(trifluoromethoxy)butan-2-yl]-1-(2,4,6-trifluorophenyl)-1,4-dihydro-1,8-naphthyridine-3-carboxamide], under setting [2], the response was half-maximal at 11 nM (EC50). The same molecule returned an Efficiency (boosting of the acetylcholine effect at EC20 acetylcholine concentration, M2-GIRK1/4 reporter cells) of 100.0%.

In turn, `O=C(N[C@H](C1CC1)C(F)(F)F)c1cn(-c2c(F)cccc2F)c2nc(N3CCNC3=O)ccc2c1=O` [Example 629, N-[(1R)-1-Cyclopropyl-2,2,2-trifluoroethyl]-1-(2,6-difluorophenyl)-4-oxo-7-(2-oxoimidazolidin-1-yl)-1,4-dihydro-1,8-naphthyridine-3-carboxamide] registered an EC50 under setting [2] of 44 nM. In addition, under “M2-GIRK1/4 reporter cells”, the Emax stood at 100%.

Under setting [1], `O=C(NC12CC3CC(F)(CC(F)(C3)C1)C2)c1cn(-c2ccc(F)cc2F)c2nc(NCC(F)(F)F)ccc2c1=O` [Example 92, 1-(2,4-Difluorophenyl)-N-(3,5-difluorotricyclo[3.3.1.1^3,7]dec-1-yl)-4-oxo-7-[(2,2,2-trifluoroethyl)amino]-1,4-dihydro-1,8-naphthyridine-3-carboxamide] displayed an EC50 of 174 nM.

The molecule `O=C(NC(c1ccccc1Cl)C(F)(F)F)c1cn(-c2c(F)cc(F)cc2F)c2nc(N3CCNC3=O)ccc2c1=O` (racemic) [Example 563, N-[1-(2-Chlorophenyl)-2,2,2-trifluoroethyl]-4-oxo-7-(2-oxoimidazolidin-1-yl)-1-(2,4,6-trifluorophenyl)-1,4-dihydro-1,8-naphthyridine-3-carboxamide] showed an EC50 under setting [2] of 20 nM. Moreover, the Emax (M2-GIRK1/4 reporter cells) amounted to 100%.
